Source: article PMC9866629, “Pharmacokinetics of Novel Furoxan/Coumarin Hybrids in Rats Using LC-MS/MS Method and Physiologically Based Pharmacokinetic Model” (Molecules, 2023)
Where “and” joins values, the source holds several entries; their conditions need not be identical. Equal values may be shown once. Read-outs that look alike come from different tables or passages of the source.

Experiments:
[1] = Stability test of QC plasma samples (LC-MS/MS validation); format: physicochemical, rat; conditions: QC plasma samples 20–800 ng/mL, frozen at −80 °C for one week, n = 5
Description: The concentration of the testing compound was calculated by using the calibration curves with seven dots (10, 25, 50, 100, 250, 500, and 1000 ng/mL). The calibration line was constructed by plotting the peak area ratio (y-axis) of analytes to IS versus the nominal concentration (x-axis). The specificity and selectivity were investigated by comparing the chromatograms of blank plasma samples with the corresponding samples spiked with testing compounds. The signal-to-noise ratio (S/N) of the lower limit of quantification (LLOQ) was at least at 10. The linearity of the calibration graph was validated, and the calculated concentrations of the calibration standards should be all within ±15% of the nominal value, except for the LLOQ of ±20%. The linear correlation coefficient (R^2) should be 0.9900 or greater. The intra- and interday precisions and accuracy of the method were assessed by determining the quality control (QC) samples of […] (six samples at each concentration level) over 3 consecutive days. The coefficient of variation (CV) should not exceed 20% at LLOQ and should be within 15% for QCs. The relative error (RE) should be within 80%–120% at LLOQ and within 85%–115% for QCs. Recovery was assessed by comparing peak area of nominal QC plasma samples with peak area of the spike-after extraction samples (six samples at each concentration level). The matrix effect was evaluated by comparing peak area of the spike-after extraction samples with that of the analytes spiked in pure water (six samples at each concentration level). The recovery and matrix factor should be within 85%–115%. The variation in recovery and matrix effect should be less than 15%. The dilution integrity test was performed for samples exceeding the upper limit of quantification (ULOQ). QCs were prepared (5 samples at each concentration level) and frozen at […] for one week. LC-MS/MS analysis was performed to calculate the stability (RE). Samples of 25 μg/mL (n = 6) were diluted with blank matrix to 0.5 μg/mL, which was within the calibration line range, and the RE should be within 85–115%.

[2] = PBPK modeling (Simcyp Rat); conditions: blood, intravenous, in rats, calculated on the basis of B/P and the plasma clearance rate, read-out: liver blood clearance
Text: PBPK models were constructed with physical chemistry and in vitro PK parameters, such as molecular weight (MW), octanol–buffer partition coefficient (log Po:w), compound type, pKa, B/P, fu, and CLint, using Simcyp (Simcyp Rat Version 16, Sheffield, UK). Two physical chemistry parameters of log Po:w and pKa were predicted on the basis of the structure of the chemicals by using the ADMET Predictor (v.9.0, Lancaster, http://www.simulations-plus.com/, accessed on 9 September 2019). Other parameters, including B/P, fu, and CLint, were obtained through in vitro experiments as mentioned above. The time course of xenobiotic concentration in plasma was simulated, and the PBPK models were further optimized on the basis of the experimental in vivo PK parameters (AUC, Cmax, and time to reach Cmax (Tmax)). The prediction accuracy of the PBPK model was evaluated by introducing the deviation (fold error) of the predicted PK parameters and comparing them with the experimental ones. The equation of the fold error is shown below. A simulation with fold errors no greater than 2 is acceptable [36, 42]. (1) fold error=observed parameter/predicted parameter;if observed value>predicted value (2) fold error=predicted parameter/observed parameter;if predicted value>observed value

[3] = Pharmacokinetic study after intravenous administration to rats; format: in vivo, rat; conditions: for clearance / AUC(0-inf) / Cmax / MRT / Tmax / Vd / half-life / AUC(0-t): rat, plasma; for AUC(0-t): read-out: AUC(0–24 h)
Description: Rats were randomly divided into three groups, namely A, B, and C, with six rats in each group. […] Blood samples (0.15–0.2 mL) were collected through the femoral artery into an Eppendorf tube moistened with heparinized 0.9% NaCl before intravenous injection (0 h) and at 0.083, 0.25, 0.5, 1, 2, 4, 8, 12, and 24 h after intravenous injection. The blood sample was immediately centrifuged at 3000 rpm for 10 min at a temperature of 4 °C, and the upper plasma sample was collected and stored at −80 °C until analysis.
The plasma samples were thawed at room temperature before determination. Further, 20 μL of plasma was pipetted into a 1.5 mL Eppendorf tube, and 80 μL of methanol–acetonitrile (1:1, v/v) solution containing 200 ng/mL IS was added to precipitate the proteins. The contents were mixed thoroughly via vortexing the plasma sample for 40 s. The supernatant was aspirated for LC-MS/MS analysis after centrifugation at 14,000 rpm for 15 min.
(§1) Vmax and Km were estimated via the nonlinear regression of the Michaelis–Menten model by using GraphPad Prism (Version 6.01, http://www.graphpad.com/). The PK parameters were determined from drug plasma concentration-time data by employing a noncompartmental approach using Phoenix WinNonlin (version 3.0).

[4] = In vitro intrinsic clearance, disappearance via rat liver microsomes; format: in vitro ADME; conditions: for microsomal CLint: Sprague Dawley, rat, pooled liver microsomes, pH 7.4, rat hepatic microsomes; for microsomal CLint / CLint: Vmax divided by Km; for Km at 20 min: pooled rat liver microsomes, pH 7.4; for Km at 20 min / Vmax: rat hepatic microsomes 0.2 mg protein/mL, NADPH 1 mM, 20 min; for CLint: rat hepatic microsomes
Description: The incubation mixture with a final volume of 50 μL contained the testing compound, rat liver microsomes (0.2 mg protein/mL), phosphate buffer ([…], pH 7.4), and NADPH (1 mM). Before adding NADPH, the reaction mixture was preincubated in a shaking water bath at 37 °C for 5 min. 200 μL of methanol–acetonitrile mixture (1:1) containing IS was added to terminate the reaction after incubation for 20 min. Concentration of the testing compound was determined by LC-MS/MS after centrifugation at 14,000 rpm for 15 min. […] All experiments were performed in triplicate.
as §1

[5] = Blood-to-plasma concentration ratio (B/P) in rat blood; format: in vitro ADME; conditions: 37 °C, 1 μg/mL (CY-14S-4A83, CY-16S-4A43), 5 μg/mL (CY-16S-4A93)
Description: Two batches of blood samples were prepared in parallel. One batch of the blood samples was then incubated in a shaking water bath at 37 °C for 30 min, and the other batch was incubated for 60 min. After incubation, one 150 μL aliquot of blood samples was centrifuged at 1500 rpm for 5 min, and the concentrations of the testing compound in the resulting plasma portion after extraction were determined by LC-MS/MS. In parallel, another 50 uL aliquot of the blood incubation sample was transferred into an Eppendorf tube and lysed by three-cycle freeze/thaw method. After the cell-lysis and extraction, the concentration of testing compound in the whole blood sample was determined by LC-MS/MS. The B/P was determined directly by the ratio of drug concentration in the whole blood to the plasma concentration. All experiments were performed in triplicate.

[6] = Free drug fraction (fu) in rat plasma by ultrafiltration; format: in vitro ADME
Description: The fu of furoxan/coumarin hybrids in plasma was measured through the ultrafiltration method by using Amicon Ultra-15 ultrafiltration centrifuge tube (0.5 mL, 3-kDa membrane, Millipore, Bedford, MA, USA). […] One batch was incubated in a shaking water bath at 37 °C for 30 min, and the other batch was incubated for 60 min. After incubation, a plasma sample was transferred into ultrafiltration tube and centrifuged at 10,000 rpm for 20 min. The free compound in the filtrated fraction was determined directly by LC-MS/MS. All experiments were performed in triplicate.

[7] = 1.67 mg/kg, experimental value compared with PBPK prediction, read-out: experimental CL
[8] = single dose 1.67 mg/kg, read-out: CL (converted)

Stability (RE) [1]	clearance [2]	clearance [3, 7]	AUC(0-inf) ([3]; single dose 1.67 mg/kg)	Cmax ([3]; single dose 1.67 mg/kg)	MRT ([3]; single dose 1.67 mg/kg)	Tmax ([3]; single dose 1.67 mg/kg)	Vd ([3]; single dose 1.67 mg/kg)	half-life ([3]; single dose 1.67 mg/kg)	AUC(0-t) ([3]; single dose 1.67 mg/kg)	clearance [3, 8]	microsomal CLint [4]	Km at 20 min [4]	SMILES	Vmax [4]	also measured
86.5–94.7%	0.24 mL/min	2.08 mL/min	3850 ± 1770 ng·h/mL	9380 ± 4210 ng/mL	132 ± 42 min	6 min	0.68 ± 0.38 L/kg	54 ± 12 min	3850 ± 1770 ng·h/mL	8.34 mL/min/kg	174 µL/min/mg	1.3 ± 0.2 µM	Cc1c(Cc2ccc(C(F)(F)F)cc2)c(=O)oc2cc(OCCOc3no[n+]([O-])c3S(=O)(=O)c3ccccc3)ccc12 [CY-16S-4A93]	220.0 pmol/min/mg Protein	plasma concentration within 24 h (stays above LLOQ) ([3]; 1.67 mg/kg): > 10 ng/mL; Vmax ([4]; listed as CY-14S-4A93): 220.0 ± 14.1 pmol/min/mg Protein; CLint ([4]; listed as CY-14S-4A93): 173.83 µL/min/mg
88–94.4%	0.23 mL/min										336 µL/min/mg	18 ± 2.3 µM	Cc1c(Cc2ccc(F)cc2)c(=O)oc2cc(OCCOc3no[n+]([O-])c3S(=O)(=O)c3ccccc3)ccc12 [CY-14S-4A83]	6044.0 pmol/min/mg Protein and 6044.0 ± 290.8 pmol/min/mg Protein	B/P ([5]; incubation time 30 min): 12.11 ± 0.094; B/P ([5]; incubation time 60 min): 12.34 ± 0.03; plasma concentration within 24 h (stays above LLOQ) ([3]; 0.5 mg/kg): > 10 ng/mL; clearance ([3]; 0.5 mg/kg, experimental value compared with PBPK prediction, read-out: experimental CL): 1.73 mL/min; AUC(0-inf) ([3]; single dose 0.5 mg/kg): 1340 ± 475 ng·h/mL; Cmax ([3]; single dose 0.5 mg/kg): 946 ± 452 ng/mL; MRT ([3]; single dose 0.5 mg/kg): 366 ± 90 min; Tmax ([3]; single dose 0.5 mg/kg): 12 ± 12 min; Vd ([3]; single dose 0.5 mg/kg): 0.56 ± 0.15 L/kg; half-life ([3]; single dose 0.5 mg/kg): 60 ± 12 min; AUC(0-t) ([3]; single dose 0.5 mg/kg): 1310 ± 462 ng·h/mL; clearance ([3]; single dose 0.5 mg/kg, read-out: CL (converted)): 6.91 mL/min/kg; fraction unbound at 30 min ([6]; rat, fresh rat plasma): 0.0298 ± 0.002; fraction unbound at 60 min ([6]; rat, fresh rat plasma): 0.0217 ± 0.0003; f u ([6]; value used in the PBPK modeling): 0.02; CLint [4]: 336.033 µL/min/mg
86–99.5%	1.87 mL/min	10.9 mL/min	673 ± 182 ng·h/mL	1210 ± 482 ng/mL	270 ± 60 min	6 ± 6 min	2.03 ± 0.63 L/kg	30 ± 6 min	669 ± 182 ng·h/mL	43.7 mL/min/kg	333 µL/min/mg	1.4 ± 0.3 µM	Cc1c(Cc2ccc(C#N)cc2)c(=O)oc2cc(OCCOc3no[n+]([O-])c3S(=O)(=O)c3ccccc3)ccc12 [CY-16S-4A43]	481.2 pmol/min/mg Protein and 481.2 ± 30.0 pmol/min/mg Protein	time within which plasma concentration dropped to less than 10 ng/mL ([3]; 1.67 mg/kg): 2 to 4 h
